Test results published in patent US20170190671A1, “BIS(ARYL)CATECHOL DERIVATIVES AS HERBICIDES” (E I DU PONT DE NEMOURS AND COMPANY, priority 2014, published 2017).

Columns and labels:
Assay type in all cases: in vivo
[1] = test system: pigweed (Amaranthus retroflexus); assay: Test C preemergence; details: Amaranthus retroflexus, pre-emergence, 336 h, scale 0 to 100, read-out: Plant response rating, Pigweed
Procedure, shortened: (§1)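 Seeds in loam-sand soil were treated preemergence, and plants at the 1- to 4-leaf stage (2-18 cm) in peat-based medium were sprayed postemergence, with test chemicals in a non-phytotoxic solvent containing surfactant. After 13-15 days in a greenhouse, response was rated visually against controls from 0 (no effect) to 100 (complete control).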

[2] = test system: johnsongrass (Sorghum halepense); assay: Test C preemergence; details: Sorghum halepense, pre-emergence, 336 h, scale 0 to 100, read-out: Plant response rating, Johnsongrass
Procedure, shortened: as §1

[3] = test system: morningglory (Ipomoea coccinea); assay: Test C preemergence; details: Ipomoea, pre-emergence, 336 h, scale 0 to 100, read-out: Plant response rating, Morningglory
Procedure, shortened: as §1

soybean (Glycine max) = assay: Test C postemergence; details: Glycine max, post-emergence, Postemergence, scale 0 to 100, read-out: Plant response rating, Soybean
Procedure, shortened: as §1

[4] = test system: chickweed (common chickweed, Stellaria media); assay: Test C postemergence; details: Stellaria media, post-emergence, Postemergence, scale 0 to 100, read-out: Plant response rating, Chickweed
Procedure, shortened: as §1

[5] = test system: pigweed (Amaranthus retroflexus); assay: Test C postemergence; details: Amaranthus retroflexus, post-emergence, 336 h, Postemergence, scale 0 to 100, read-out: Plant response rating, Pigweed
Procedure, shortened: as §1

[6] = test system: lambsquarters (Chenopodium album); assay: Test C postemergence; details: Chenopodium album, post-emergence, 336 h, Postemergence, scale 0 to 100, read-out: Plant response rating, Lambsquarters
Procedure, shortened: as §1

[7] = test system: large (Lg) crabgrass (Digitaria sanguinalis); assay: Test C postemergence; details: Digitaria sanguinalis, post-emergence, 336 h, Postemergence, scale 0 to 100, read-out: Plant response rating, Crabgrass, Large
Procedure, shortened: as §1

[8] = test system: yellow nutsedge (Cyperus esculentus); assay: Test C postemergence; details: Cyperus, post-emergence, 336 h, Postemergence, scale 0 to 100, read-out: Plant response rating, Nutsedge, Yellow
Procedure, shortened: as §1

[9] = test system: oilseed rape (Brassica napus); assay: Test C postemergence; details: Brassica napus, post-emergence, Postemergence, scale 0 to 100, read-out: Plant response rating, Oilseed Rape
Procedure, shortened: as §1

[10] = test system: velvetleaf (Abutilon theophrasti); assay: Test C postemergence; details: Abutilon theophrasti, post-emergence, Postemergence, scale 0 to 100, read-out: Plant response rating, Velvetleaf
Procedure, shortened: as §1

[11] = test system: johnsongrass (Sorghum halepense); assay: Test C postemergence; details: Sorghum halepense, post-emergence, 336 h, Postemergence, scale 0 to 100, read-out: Plant response rating, Johnsongrass
Procedure, shortened: as §1

[12] = test system: blackgrass (Alopecurus myosuroides); assay: Test C postemergence; details: Alopecurus myosuroides, post-emergence, 336 h, Postemergence, scale 0 to 100, read-out: Plant response rating, Blackgrass
Procedure, shortened: as §1

[13] = test system: barnyardgrass (Echinochloa crus-galli); assay: Test C postemergence; details: Echinochloa crus-galli, post-emergence, Postemergence, scale 0 to 100, read-out: Plant response rating, Barnyardgrass
Procedure, shortened: as §1

[14] = test system: galium (catchweed bedstraw, Galium aparine); assay: Test C postemergence; details: Galium, post-emergence, 336 h, Postemergence, scale 0 to 100, read-out: Plant response rating, Galium
Procedure, shortened: as §1

[15] = test system: waterhemp (common waterhemp, Amaranthus rudis); assay: Test C postemergence; details: Amaranthus tuberculatus, post-emergence, Postemergence, scale 0 to 100, read-out: Plant response rating, Waterhemp
Procedure, shortened: as §1

[16] = test system: winter wheat (Triticum aestivum); assay: Test C postemergence; details: Triticum aestivum, post-emergence, 336 h, Postemergence, scale 0 to 100, read-out: Plant response rating, Wheat
Procedure, shortened: as §1

corn (Zea mays) = assay: Test C postemergence; details: Zea mays, post-emergence, 336 h, Postemergence, scale 0 to 100
Procedure, shortened: as §1

kochia (Kochia scoparia) = assay: Test C postemergence; details: Bassia scoparia, post-emergence, Postemergence, scale 0 to 100, read-out: Plant response rating, Kochia
Procedure, shortened: as §1

[17] = test system: giant foxtail (Setaria faberii); assay: Test C postemergence; details: Setaria faberi, post-emergence, 336 h, Postemergence, scale 0 to 100, read-out: Plant response rating, Foxtail, Giant
Procedure, shortened: as §1

[18] = test system: ragweed (common ragweed, Ambrosia elatior); assay: Test C postemergence; details: Ambrosia artemisiifolia, post-emergence, 336 h, Postemergence, scale 0 to 100, read-out: Plant response rating, Ragweed
Procedure, shortened: as §1

[19] = test system: morningglory (Ipomoea coccinea); assay: Test C postemergence; details: Ipomoea, post-emergence, 336 h, Postemergence, scale 0 to 100, read-out: Plant response rating, Morningglory
Procedure, shortened: as §1

Compound: Fc1cccc(Oc2ncc(C(F)(F)F)cn2)c1Oc1ncc(Cl)cn1 [Compound 42, 5-chloro-2-[2-fluoro-6-[[5-(trifluoromethyl)-2-pyrimidinyl]oxy]phenoxy]pyrimidine]
- pest or weed control at 31 g/ha ([1]; 31 g ai/ha, preemergence): 100%
- pest or weed control at 62 g/ha ([1]; 62 g ai/ha, preemergence): 100%
- pest or weed control at 125 g/ha ([1]; 125 g ai/ha, preemergence): 100%
- pest or weed control at 16 g/ha ([1]; Preemergence, 16 g ai/ha): 100%
- pest or weed control at 31 g/ha ([2]; 31 g ai/ha, preemergence): 70%
- pest or weed control at 62 g/ha ([2]; 62 g ai/ha, preemergence): 100%
- pest or weed control at 125 g/ha ([2]; 125 g ai/ha, preemergence): 100%
- pest or weed control at 16 g/ha ([2]; Preemergence, 16 g ai/ha): 30%
- pest or weed control at 31 g/ha ([3]; 31 g ai/ha, preemergence): 85%
- pest or weed control at 62 g/ha ([3]; 62 g ai/ha, preemergence): 100%
- pest or weed control at 125 g/ha ([3]; 125 g ai/ha, preemergence): 100%
- pest or weed control at 16 g/ha ([3]; Preemergence, 16 g ai/ha): 60%
- plant injury at 31 g/ha (soybean (Glycine max); 31 g ai/ha): 55%
- plant injury at 62 g/ha (soybean (Glycine max); 62 g ai/ha): 65%
- plant injury at 125 g/ha (soybean (Glycine max); 125 g ai/ha): 85%
- pest or weed control at 16 g/ha ([4]; 16 g ai/ha): 20%
- pest or weed control at 31 g/ha ([4]; 31 g ai/ha): 90%
- pest or weed control at 62 g/ha ([4]; 62 g ai/ha): 95%
- pest or weed control at 125 g/ha ([4]; 125 g ai/ha): 95%
- pest or weed control at 31 g/ha ([5]; 31 g ai/ha): 90%
- pest or weed control at 62 g/ha ([5]; 62 g ai/ha): 98%
- pest or weed control at 125 g/ha ([5]; 125 g ai/ha): 98%
- pest or weed control at 16 g/ha ([6]; 16 g ai/ha): 80%
- pest or weed control at 31 g/ha ([6]; 31 g ai/ha): 80%
- pest or weed control at 62 g/ha ([6]; 62 g ai/ha): 90%
- pest or weed control at 125 g/ha ([6]; 125 g ai/ha): 95%
- pest or weed control at 16 g/ha ([7]; 16 g ai/ha): 10%
- pest or weed control at 31 g/ha ([7]; 31 g ai/ha): 20%
- pest or weed control at 62 g/ha ([7]; 62 g ai/ha): 15%
- pest or weed control at 125 g/ha ([7]; 125 g ai/ha): 40%
- pest or weed control at 31 g/ha ([8]; 31 g ai/ha): 0%
- pest or weed control at 62 g/ha ([8]; 62 g ai/ha): 5%
- pest or weed control at 125 g/ha ([8]; 125 g ai/ha): 5%
- plant injury at 31 g/ha ([9]; 31 g ai/ha): 50%
- plant injury at 62 g/ha ([9]; 62 g ai/ha): 70%
- plant injury at 125 g/ha ([9]; 125 g ai/ha): 85%
- pest or weed control at 31 g/ha ([10]; 31 g ai/ha): 60%
- pest or weed control at 62 g/ha ([10]; 62 g ai/ha): 70%
- pest or weed control at 125 g/ha ([10]; 125 g ai/ha): 85%
- pest or weed control at 16 g/ha ([11]; 16 g ai/ha): 10%
- pest or weed control at 31 g/ha ([11]; 31 g ai/ha): 10%
- pest or weed control at 62 g/ha ([11]; 62 g ai/ha): 10%
- pest or weed control at 125 g/ha ([11]; 125 g ai/ha): 40%
- pest or weed control at 16 g/ha ([12]; 16 g ai/ha): 10%
- pest or weed control at 31 g/ha ([12]; 31 g ai/ha): 20%
- pest or weed control at 62 g/ha ([12]; 62 g ai/ha): 20%
- pest or weed control at 125 g/ha ([12]; 125 g ai/ha): 80%
- pest or weed control at 16 g/ha ([13]; 16 g ai/ha): 5%
- pest or weed control at 31 g/ha ([13]; 31 g ai/ha): 5%
- pest or weed control at 62 g/ha ([13]; 62 g ai/ha): 10%
- pest or weed control at 125 g/ha ([13]; 125 g ai/ha): 20%
- pest or weed control at 16 g/ha ([14]; 16 g ai/ha): 75%
- pest or weed control at 31 g/ha ([14]; 31 g ai/ha): 98%
- pest or weed control at 62 g/ha ([14]; 62 g ai/ha): 100%
- pest or weed control at 125 g/ha ([14]; 125 g ai/ha): 100%
- pest or weed control at 31 g/ha ([15]; 31 g ai/ha): 90%
- pest or weed control at 62 g/ha ([15]; 62 g ai/ha): 95%
- pest or weed control at 125 g/ha ([15]; 125 g ai/ha): 95%
- plant injury at 31 g/ha ([16]; 31 g ai/ha): 0%
- plant injury at 62 g/ha ([16]; 62 g ai/ha): 0%
- plant injury at 125 g/ha ([16]; 125 g ai/ha): 10%
- Corn plant response rating (crop injury, 0 = no effect, 100 = complete kill) at 16 g/ha (corn (Zea mays); 16 g ai/ha): 5%
- Corn plant response rating (crop injury, 0 = no effect, 100 = complete kill) at 31 g/ha (corn (Zea mays); 31 g ai/ha): 5%
- Corn plant response rating (crop injury, 0 = no effect, 100 = complete kill) at 62 g/ha (corn (Zea mays); 62 g ai/ha): 10%
- Corn plant response rating (crop injury, 0 = no effect, 100 = complete kill) at 125 g/ha (corn (Zea mays); 125 g ai/ha): 25%
- pest or weed control at 16 g/ha (kochia (Kochia scoparia); 16 g ai/ha): 90%
- pest or weed control at 31 g/ha (kochia (Kochia scoparia); 31 g ai/ha): 95%
- pest or weed control at 62 g/ha (kochia (Kochia scoparia); 62 g ai/ha): 100%
- pest or weed control at 125 g/ha (kochia (Kochia scoparia); 125 g ai/ha): 100%
- pest or weed control at 16 g/ha ([17]; 16 g ai/ha): 30%
- pest or weed control at 31 g/ha ([17]; 31 g ai/ha): 30%
- pest or weed control at 62 g/ha ([17]; 62 g ai/ha): 35%
- pest or weed control at 125 g/ha ([17]; 125 g ai/ha): 35%
- pest or weed control at 31 g/ha ([18]; 31 g ai/ha): 65%
- pest or weed control at 62 g/ha ([18]; 62 g ai/ha): 70%
- pest or weed control at 125 g/ha ([18]; 125 g ai/ha): 65%
- pest or weed control at 31 g/ha ([19]; 31 g ai/ha): 70%
- pest or weed control at 62 g/ha ([19]; 62 g ai/ha): 75%
- pest or weed control at 125 g/ha ([19]; 125 g ai/ha): 85%
